Earlier results, collected in patent US20050226974A1 (priority 2004, published 2005).

Tests used:
[1] = tested on: common food spoilage yeasts and moulds; conditions: most strains of common food spoilage yeasts and moulds
[2] = tested on: yeasts; conditions: some yeasts

Compound: C[C@@H]1C/C=C/C=C/C=C/C=C/[C@H](O[C@@H]2O[C@H](C)[C@@H](O)[C@H](N)[C@@H]2O)C[C@@H]2O[C@](O)(C[C@@H](O)C[C@H]3O[C@@H]3/C=C/C(=O)O1)C[C@H](O)[C@H]2C(=O)O [Natamycin]
- concentrations inhibiting most strains [1]: 1-15 ppm
- minimal inhibitory concentrations [2]: less than 3 ppm
- solubility dependence on pH: most soluble at high or low pH
- maximum solubility (in water): around 40 ppm
